Results taken from patent publication US20260191825A1, “CONTRACEPTIVE COMPOUNDS AND DOSING FOR THE SAME” (YourChoice Therapeutics, Inc., priority 2024, published 2026).
“Also recorded” adds a separate entry of the source.

Columns and labels:
[1] = system: male Sprague Dawley rats; assay: Rat 28-day repeat-dose GLP toxicity study; set-up: NOAEL increase over the minimum efficacious dose in rats: dose or concentration left out as unconfirmed
[2] = system: male dogs; assay: Dog single dose non-GLP study; assay type: in vivo
[3] = system: respiratory system; assay: Rat respiratory safety pharmacology study; assay type: in vivo; conditions: male Sprague Dawley rats, single oral doses of 3, 10 or 30 mg/kg
[4] = Phase 1a single ascending oral dose study, PK; conditions: male, human, in vivo, fasted, geometric mean; for AUC(0-t): po
[5] = Dog 28-day repeat-dose GLP toxicity study; assay type: in vivo; conditions: male, Beagle, in vivo; for NOAEL at 28 days: dog
[6] = system: male Beagle dogs; assay: Dog 28-day repeat-dose GLP toxicity study; assay type: in vivo
[7] = system: plasma proteins; assay: In vitro plasma protein binding; assay type: in vitro ADME; conditions: 1 μM, all species tested (human, monkey, mouse, rat, dog)
[8] = system: bacterial reverse mutation (Ames); assay: In vitro bacterial reverse mutation (Ames) test; assay type: cell-based; conditions: in vitro bacterial assay, highest doses tested
[9] = target: CYP2C19 (Homo sapiens, UniProt P33261); assay: In vitro CYP inhibition (direct and time-dependent), CYP2C19; assay type: in vitro ADME
From the text: However, the likelihood of drug interactions is low since healthy participants who meet eligibility criteria will be enrolled in this Phase 1b/2a clinical trial. An allowance for select concomitant medications may be considered for select participants at the discretion of the investigator and/or sponsor if drug profiles are not anticipated to interact with Compound A. Such medications may include, but will not be limited to paracetamol or ibuprofen as assessed by both the PI and the Sponsor. […] Additional precautions to avoid grapefruit, pomegranates, star fruit, or Seville oranges for 7 days prior to admission, and juices and products containing these fruits for the duration of the study will be taken.

[10] = system: rats; assay: Mating trials with rats; assay type: in vivo, rat; conditions: control 88%
[11] = target: hERG (Homo sapiens, UniProt Q12809); assay: hERG GLP safety pharmacology study
[12] = Phase 1b MAD study (Part 1), 28-day dosing, PK; assay type: in vivo, human; conditions: for Cmax / AUC0-24 / AUC(0-t) / AUC(0-inf) / half-life: mean; for Tmax: median;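 for all read-outs here: PK profiles sampled across 24 h on Day 1 and Day 28 while participants stayed overnight in the clinical research unit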
From the text: • Part 1: Participants will have overnight stays in the clinical research unit in order to monitor their wellbeing and obtain 24-hour PK profiles on Day 1 and Day 28.

[13] = system: healthy men; assay: Phase 1b MAD study (Part 1), 28-day dosing, safety and tolerability; assay type: in vivo, human
Description: Cohort 4 (receiving 180 mg) is currently being studied.

[14] = system: rat; assay: Rat repeat daily dosing at non-tolerated doses; assay type: in vivo
Description: These doses convert to respective Human Equivalent Doses (HEDs) of ≥1,612.8 mg and ≥444.8 mg fixed dose based on 80 kg body weight. […] Safety laboratory analyses include serum chemistry, hematology, coagulation, and lipid panel.

[15] = system: healthy vasectomized men; assay: Phase 1a single ascending oral dose study, safety and tolerability; assay type: in vivo, human
Description: The doses tested under fasting conditions were 10, 30, 90 and 180 mg. […] Cohort 1 first received 10 mg, and after a 5-week washout period received 30 mg. Cohort 2 received 90 mg followed by 180 mg after a 5-week washout period.

[16] = rat, 3, 10 or 30 mg/kg/day for 28 days
[17] = male, human, in vivo, oral, 30 mg, […] mg once daily, Day 28
[18] = male, human, in vivo, oral, 15 mg once daily, Day 28
[19] = 15, 30 or 90 mg once daily for 28 days

CYP2C19, sequence (P33261 whole entry): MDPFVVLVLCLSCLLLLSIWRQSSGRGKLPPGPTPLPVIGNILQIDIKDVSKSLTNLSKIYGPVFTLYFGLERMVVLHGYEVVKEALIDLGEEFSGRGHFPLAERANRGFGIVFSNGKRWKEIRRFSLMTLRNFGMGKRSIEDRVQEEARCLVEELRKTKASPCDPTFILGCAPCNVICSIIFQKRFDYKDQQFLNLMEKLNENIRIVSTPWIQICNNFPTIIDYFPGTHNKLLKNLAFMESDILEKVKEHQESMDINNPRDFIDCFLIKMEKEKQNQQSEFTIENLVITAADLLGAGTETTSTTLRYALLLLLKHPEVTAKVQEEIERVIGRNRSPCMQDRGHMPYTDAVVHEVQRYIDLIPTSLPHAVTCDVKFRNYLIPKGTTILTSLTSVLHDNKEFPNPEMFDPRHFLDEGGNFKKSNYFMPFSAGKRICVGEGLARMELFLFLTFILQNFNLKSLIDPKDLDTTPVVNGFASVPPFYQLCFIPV
hERG, sequence (Q12809 whole entry): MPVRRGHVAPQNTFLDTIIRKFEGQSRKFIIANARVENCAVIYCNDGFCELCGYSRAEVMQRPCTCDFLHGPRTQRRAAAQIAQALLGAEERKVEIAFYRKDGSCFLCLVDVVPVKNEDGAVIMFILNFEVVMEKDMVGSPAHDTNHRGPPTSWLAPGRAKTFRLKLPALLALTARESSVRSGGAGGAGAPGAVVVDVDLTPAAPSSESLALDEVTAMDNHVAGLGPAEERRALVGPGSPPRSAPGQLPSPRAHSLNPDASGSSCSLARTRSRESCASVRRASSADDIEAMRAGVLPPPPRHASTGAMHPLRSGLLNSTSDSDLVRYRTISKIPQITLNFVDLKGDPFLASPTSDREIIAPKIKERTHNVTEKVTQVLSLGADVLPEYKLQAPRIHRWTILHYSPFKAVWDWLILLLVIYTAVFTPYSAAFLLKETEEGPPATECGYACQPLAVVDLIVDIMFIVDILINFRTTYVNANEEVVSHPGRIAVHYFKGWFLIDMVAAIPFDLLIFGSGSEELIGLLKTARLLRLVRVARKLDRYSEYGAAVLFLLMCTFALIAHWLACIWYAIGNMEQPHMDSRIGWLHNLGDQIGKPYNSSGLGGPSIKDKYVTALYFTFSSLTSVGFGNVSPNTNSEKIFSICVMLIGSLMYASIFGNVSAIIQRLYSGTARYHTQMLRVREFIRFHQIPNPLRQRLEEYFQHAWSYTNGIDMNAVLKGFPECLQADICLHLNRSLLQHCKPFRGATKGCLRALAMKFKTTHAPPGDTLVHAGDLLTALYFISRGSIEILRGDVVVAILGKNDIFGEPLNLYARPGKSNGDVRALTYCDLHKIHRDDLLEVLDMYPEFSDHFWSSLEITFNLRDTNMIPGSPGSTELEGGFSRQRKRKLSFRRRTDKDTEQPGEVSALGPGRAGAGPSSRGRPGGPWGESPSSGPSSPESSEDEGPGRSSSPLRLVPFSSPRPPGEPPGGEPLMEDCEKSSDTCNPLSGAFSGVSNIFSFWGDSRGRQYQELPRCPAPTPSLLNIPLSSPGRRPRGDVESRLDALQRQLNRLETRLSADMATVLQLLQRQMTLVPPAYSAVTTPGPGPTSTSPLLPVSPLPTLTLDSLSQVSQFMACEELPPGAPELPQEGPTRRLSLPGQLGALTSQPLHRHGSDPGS

Cc1ccc(C2=CC(C)(C)Oc3ccc(-c4ccc(-c5ccc(C(=O)O)cc5)[nH]4)cc32)cc1 [Compound A]
NOAEL increase over the minimum efficacious dose in rats ([1]; rat NOAEL […] mg/kg/day, based on exposure): 40 fold
Prostate weight [1, 16]: unchanged
Recovery from testicular effects [1, 16]: very slow
Testosterone levels ([1]; rat, 3, 10 or 30 mg/kg/day for 28 days, inferred from prostate weight): did not change testosterone levels
HED of tolerated single dose ([2]; dogs, 500 mg/kg): 277.8 mg/kg
Tolerated single dose (highest dose tested) ([2]; male dogs, non-GLP study): 500 mg/kg
Main outcomes: rat respiratory (adverse effects on respiratory system) [3]: no adverse effects; also recorded: Clean
AUC(0-t) ([4]; 10 mg, single oral dose 10 mg, read-out: AUC0-24): 2.38 µg·h/mL
AUC(0-t) ([4]; 10 mg, single oral dose 10 mg, read-out: AUC0-last): 8.18 µg·h/mL
AUC(0-t) ([4]; 30 mg, single oral dose 30 mg, read-out: AUC0-24): 3.52 µg·h/mL
AUC(0-t) ([4]; 30 mg, single oral dose 30 mg, read-out: AUC0-last): 12.4 µg·h/mL
AUC(0-t) ([4]; 90 mg, single oral dose 90 mg, read-out: AUC0-24): 8.43 µg·h/mL
AUC(0-t) ([4]; 90 mg, single oral dose 90 mg, read-out: AUC0-last): 26.3 µg·h/mL
AUC(0-t) ([4]; 180 mg, single oral dose 180 mg, read-out: AUC0-24): 27.3 µg·h/mL
AUC(0-t) ([4]; 180 mg, single oral dose 180 mg, read-out: AUC0-last): 73.4 µg·h/mL
AUC(0-inf) ([4]; single oral dose 10 mg): 9.56 µg·h/mL
Cmax ([4]; single oral dose 10 mg): 0.131 µg/mL
half-life ([4]; single oral dose 10 mg): 53.5 h
AUC(0-inf) ([4]; single oral dose 30 mg): 12.9 µg·h/mL
Cmax ([4]; single oral dose 30 mg): 0.2 µg/mL
half-life ([4]; single oral dose 30 mg): 61.7 h
AUC(0-inf) ([4]; single oral dose 90 mg): 26.8 µg·h/mL
Cmax ([4]; single oral dose 90 mg): 0.472 µg/mL
half-life ([4]; single oral dose 90 mg): 71.3 h
AUC(0-inf) ([4]; single oral dose 180 mg): 75.4 µg·h/mL
Cmax ([4]; single oral dose 180 mg): 1.75 µg/mL
half-life ([4]; single oral dose 180 mg): 76.3 h
Human equivalent dose of NOAEL at 28 days ([5]; dog 28-day GLP, NOAEL 5 mg/kg/day, read-out: HED of NOAEL): 2.8 mg/kg/day
NOAEL at 28 days ([5]; 28-day repeat dose GLP, 2.5-25 mg/kg/day): 5 mg/kg/day
NOAEL at 28 days ([5]; 28-day repeat-dose): 5 mg/kg
HED (based on BSA) of MABEL ([6]; dog): 1.4 mg/kg
HED for 60 kg BW of MABEL ([6]; dog): 84 mg
HED for 80 kg BW of MABEL ([6]; dog): 112 mg
HED of not tolerated dose, fixed dose based on 80 kg body weight ([6]; dog): ≥ 444.8 mg
Not tolerated repeat daily dose (death and morbidity) ([6]; dog): ≥ 10 mg/kg/day
Doses with intended testicular toxicity confirmed by histopathology ([6]; dog, 28-day dosing): ≥ 2.5 mg/kg/day
MABEL ([6]; dog, 28-day repeat dose GLP): 2.5 mg/kg/day
Reversibility of spermatogenesis ([6]; dog, 62-day recovery period): reversible
Recovery of spermatogenesis ([6]; dog, after 28-day dosing): 1 spermatogenic cycle
Cross-section of canine testicle after dosing (FIG. 1B) ([6]; dog, after dosing): no developing and mature sperm
Cross-section of canine testicle after recovery period of no dosing (FIG. 1C) ([6]; dog, after recovery period): return of developing sperm
Cause of death or moribundity ([6]; dogs, 10 or 25 mg/kg/day): renal toxicity
NOAEL increase over the minimum efficacious dose in rats ([6]; male, Beagle, dog, in vivo, 28 days): 22 fold
HED for 60 kg BW ([6]; of dog repeat-dose NOAEL): 168 mg
HED for 80 kg BW ([6]; of dog repeat-dose NOAEL): 224 mg
Binding to plasma proteins [7]: at least 99.99%
Genotoxicity: Ames [8]: not genotoxic; also recorded: no genotoxic potential; also recorded: Clean
IC50 ([9]; CYP2C19): 85.1 µM
Time-dependent inhibition (TDI) ([9]; CYP2C19, 0.3 to 100 μM): no TDI potential
Fertility ([10]; 3 mg/kg/day dose group): 13%
Fertility ([10]; 10 mg/kg/day dose group): 6%
Fertility ([10]; 30 mg/kg/day dose group): 0%
Main outcomes: hERG [11]: Clean
Cmax ([12]; 15 mg once daily, Day 1): 247.8 ng/mL
AUC0-24 ([12]; 15 mg once daily, Day 28): 6,414 h*ng/mL
AUC0-24 ([12]; 90 mg once daily, Day 1): 14,091/ h*ng/mL
Cmax ([12]; 90 mg once daily, Day 1): 794.3 ng⁻¹ mL⁻¹
AUC0-24 ([12]; 90 mg once daily, Day 28): 22,710/ h*ng/mL
Cmax ([12]; 90 mg once daily, Day 28): 1,165/ ng/mL
AUC0-24 ([12]; […] mg once daily, Day 1): 10,060/ h*ng/mL
Cmax ([12]; […] mg once daily, Day 1): 544.5 ng⁻¹ mL⁻¹
AUC0-24 ([12]; […] mg once daily, Day 28): 9,585/ h*ng/mL
Cmax ([12]; […] mg once daily, Day 28): 551.5 ng⁻¹ mL⁻¹
AUC(0-t) ([12]; male, human, in vivo, oral, 15 mg, 15 mg once daily, Day 1, read-out: AUC0-24): 4.85 µg·h/mL
AUC(0-t) ([12]; male, human, in vivo, oral, 15 mg, 15 mg once daily, Day 1, read-out: AUC0-last): 4.85 µg·h/mL
Cmax ([12]; male, human, in vivo, oral, 15 mg, 15 mg once daily, Day 1, read-out: Cmax): 275 ng/mL
AUC(0-t) ([12]; male, human, in vivo, oral, 15 mg, 15 mg once daily, Day 28, read-out: AUC0-24): 6.42 µg·h/mL
AUC(0-t) ([12]; male, human, in vivo, oral, 15 mg, 15 mg once daily, Day 28, read-out: AUC0-last): 24.7 µg·h/mL
Cmax ([12]; male, human, in vivo, oral, 15 mg, 15 mg once daily, Day 28, read-out: Cmax): 348 ng/mL
AUC(0-t) ([12]; male, human, in vivo, oral, 30 mg, 30 mg once daily, Day 1, read-out: AUC0-24): 10.1 µg·h/mL
AUC(0-t) ([12]; male, human, in vivo, oral, 30 mg, 30 mg once daily, Day 1, read-out: AUC0-last): 10.1 µg·h/mL
Cmax ([12]; male, human, in vivo, oral, 30 mg, 30 mg once daily, Day 1, read-out: Cmax): 544 ng/mL
AUC(0-t) ([12]; male, human, in vivo, oral, 30 mg, 30 mg once daily, Day 28, read-out: AUC0-24): 9.59 µg·h/mL
AUC(0-t) ([12]; male, human, in vivo, oral, 30 mg, 30 mg once daily, Day 28, read-out: AUC0-last): 36.1 µg·h/mL
Cmax ([12]; male, human, in vivo, oral, 30 mg, 30 mg once daily, Day 28, read-out: Cmax): 552 ng/mL
Tmax ([12]; male, human, in vivo, oral, 30 mg, 30 mg once daily, Day 28): 6 h
AUC(0-inf) [12, 17]: 36.4 µg·h/mL
half-life [12, 17]: 28.9 h
AUC(0-t) ([12]; male, human, in vivo, oral, 90 mg, 90 mg once daily, Day 1, read-out: AUC0-24): 14.1 µg·h/mL
AUC(0-t) ([12]; male, human, in vivo, oral, 90 mg, 90 mg once daily, Day 1, read-out: AUC0-last): 14.1 µg·h/mL
Cmax ([12]; male, human, in vivo, oral, 90 mg, 90 mg once daily, Day 1, read-out: Cmax): 794 ng/mL
Tmax ([12]; male, human, in vivo, oral, 90 mg, 90 mg once daily, Day 1): 6 h
AUC(0-t) ([12]; male, human, in vivo, oral, 90 mg, 90 mg once daily, Day 28, read-out: AUC0-24): 22.7 µg·h/mL
Cmax ([12]; male, human, in vivo, oral, 90 mg, 90 mg once daily, Day 28, read-out: Cmax): 1160 ng/mL
AUC(0-inf) [12, 18]: 27.5 µg·h/mL
half-life [12, 18]: 35.8 h
AEs classified as possibly related to study treatment [13, 19]: moderate ventricular triplet, mild skin rash, mild sunburn, mild increased urinary frequency and mild photosensitivity
AEs classified as possibly related to study treatment (number) [13, 19]: Five
Serious adverse events (SAEs) ([13]; 15, 30 or 90 mg once daily for 28 days, fasting, to date): no serious adverse events
Safety and tolerability ([13]; 28-day oral administration, up to 90 mg, fasted state): safe and well tolerated
HED of not tolerated dose, fixed dose based on 80 kg body weight [14]: ≥ 1,612.8 mg
Not tolerated repeat daily dose (death and morbidity) [14]: ≥ 125 mg/kg/day
Systems affected at non-tolerated doses [14]: hematopoietic, hepatic, adrenal and lymphoid systems were affected
Adverse event possibly related to study treatment ([15]; after the 30 mg dose): decreased sex drive in 1 participant
Adverse event possibly related to study treatment ([15]; after the 180 mg dose, Holter monitoring, 1 participant): asymptomatic cardiac arrhythmia of low clinical concern
Serious adverse events (SAEs) ([15]; single doses 10, 30, 90, 180 mg, fasting): no serious adverse events
Adverse events classified as possibly related to study treatment (number) ([15]; single doses 10-180 mg): two
Safety and tolerability ([15]; single doses up to 180 mg, fasted state, healthy volunteers): safe and well tolerated
